These results are taken from paper PMC12024397, “Structure–Activity Study of the Antimicrobial Lipopeptide Humimycin A and Screening Against Multidrug-Resistant Staphylococcus aureus” (Antibiotics, 2025).

As usually defined, the MIC is the smallest concentration in the dilution series that meets the test's criterion for growth inhibition.

Test [1] relates to Pseudomonas aeruginosa ATCC 27853. In words: MIC, broth microdilution. The class given is cell-based. Conditions: 37 °C, 18–20 h, triplicate. The text has this: (§1) Analogs were serially diluted two-fold from stock solutions.
A general note: Dilution methods test growth across graded concentrations, often in twofold steps.

The test system of test [2] is Escherichia coli ATCC 25922. Briefly: MIC, broth microdilution. The note with it: 37 °C, 18–20 h, triplicate. In kind it is cell-based.
From the text: as §1

The subject of test [3] is Salmonella enterica ATCC 14028. In words: MIC, broth microdilution. In kind it is cell-based. The note with it: 37 °C, 18–20 h, triplicate.
From the text: as §1

The subject of test [4] is Bacillus subtilis ATCC 23857. In words: MIC, broth microdilution. In kind it is cell-based. The note with it: 37 °C, 18–20 h, triplicate.
From the text: as §1

The test system of test [5] is Staphylococcus aureus ATCC 29213. In kind it is cell-based.
From the text: as §1

In test [6] the test system is Staphylococcus aureus ATCC 43300. The class given is cell-based. The note with it: for MIC: ATCC 43300; for fold decrease in activity against the methicillin-resistant strain: MIC against MRSA ATCC 43300 compared with MSSA ATCC 29213.
From the text: as §1

Test [7] concerns S. aureus strain 4-171. The class given is cell-based, Staphylococcus aureus. Conditions: broth microdilution, triplicate; isolate 4-171, resistance PEN-AMC-CEF-CTX-FOX.
From the text: as §1

The subject of test [8] is S. aureus strain 4-138. The note with it: broth microdilution, triplicate; isolate 4-138, no resistance profile listed. An excerpt: (§2) The bacterial strains used in this study included S. aureus ATCC 29213 and ATCC 43300, B. subtilis ATCC […], E. coli ATCC 25922, P. aeruginosa ATCC 27853, and S. enterica serovar Typhimurium ATCC 14028, all of which were purchased from Cedarlane, Canada. Additionally, a collection of 19 S. aureus strains, ranging from antibiotic-sensitive to multidrug-resistant, and originating from clinical intramammary infections (IMI), was selected from the Mastitis Pathogen Culture Collection of the Canadian Bovine Mastitis Research Network (Université de Montréal, St-Hyacinthe, QC, Canada). These strains, previously used in other studies, were also included in this work. S. aureus ATCC 29213 and B. subtilis ATCC 6633 were cultured in Tryptic Soy Broth (TSB) (Difco^TM, Becton, Dickenson & Company, Spark, MD, USA). E. coli ATCC 25922 and P. aeruginosa ATCC 27853 were grown in Luria–Bertani (LB) broth (Fisher Scientific, Fair Lawn, NJ, USA). S. enterica serovar Typhimurium ATCC 14028 was propagated in Nutrient Broth (NB) (Oxoid, Basingstoke, UK). All bacterial cultures were incubated overnight at 37 °C before use and during the performance of assays.
(§3) MIC assays were performed using the broth microdilution method in 96-well plates. Analogs were serially diluted two-fold from stock solutions. The plates were incubated overnight at 37 °C and bacterial growth was monitored by measuring the absorbance at 595 nm over 18–20 h and the assay was performed in triplicate.

Test [9] has as its system S. aureus strain 4-139. The note with it: broth microdilution, triplicate; isolate 4-139, resistance PEN-ERY-CC-TET-KAN.
From the text: as §2, §3

Test [10] has as its system S. aureus strain 4-159. Conditions: broth microdilution, triplicate; isolate 4-159, no resistance profile listed.
From the text: as §2, §3

In test [11] the test system is S. aureus strain 4-144. The note with it: broth microdilution, triplicate; isolate 4-144, resistance PEN-AMC-CEF-CTX-FOX-CIP-CHL-ERY-TET.
From the text: as §2, §3

For test [12], the system named is S. aureus strain 4-156. Conditions: broth microdilution, triplicate; isolate 4-156, no resistance profile listed.
From the text: as §2, §3

Test [13] concerns S. aureus strain 4-162. The note with it: broth microdilution, triplicate; isolate 4-162, no resistance profile listed.
From the text: as §2, §3

The test system of test [14] is S. aureus strain 4-173. The note with it: broth microdilution, triplicate; isolate 4-173, no resistance profile listed.
From the text: as §2, §3

The subject of test [15] is S. aureus strain 4-140. Conditions: broth microdilution, triplicate; isolate 4-140, resistance TET.
From the text: as §2, §3

The subject of test [16] is S. aureus strain 4-172. Conditions: broth microdilution, triplicate; isolate 4-172, resistance PEN-AMC-CEF-CTX-FOX.
From the text: as §2, §3

Test [17] relates to S. aureus strain 4-134. The note with it: broth microdilution, triplicate; isolate 4-134, resistance PEN-VAN-CEF-CTX-FOX-ERY-CC-TET-KAN-GEN-STR.
From the text: as §2, §3

Test [18] concerns S. aureus strain 4-153. Conditions: broth microdilution, triplicate; isolate 4-153, no resistance profile listed.
From the text: as §2, §3

For test [19], the system named is S. aureus strain 4-145. The note with it: broth microdilution, triplicate; isolate 4-145, no resistance profile listed.
From the text: as §2, §3

SMILES strings stand for the structures. Converted amounts (≈) assume the structure as drawn. Non-standard residues stand in square brackets, D forms with d. Residues, ends and D or L forms follow the SMILES beside them. *: point of attachment. Tetradecanoyl(3R-OH) = CCCCCCCCCCC[C@@H](O)CC(=O)*; Tetradecanoyl(3S-OH) = CCCCCCCCCCC[C@H](O)CC(=O)*

Regarding `CCCCCCCCCCC[C@@H](O)CC(=O)N[C@@H](Cc1c[nH]c2ccccc12)C(=O)N[C@@H](CO)C(=O)N[C@H](Cc1c[nH]c2ccccc12)C(=O)N[C@@H](Cc1ccccc1)C(=O)N[C@@H](C(=O)N[C@H](C(=O)N[C@H](C(=O)O)C(C)C)C(C)C)[C@H](C)O` [12R] ({Tetradecanoyl(3R-OH)}-WS[dW]F[dT]VV-OH), the MIC result in test [1] is “- (No antimicrobial activity was detected up to 256 µg/mL)”; in test [2] it was “- (No antimicrobial activity was detected up to 256 µg/mL)”; in test [3], “- (No antimicrobial activity was detected up to 256 µg/mL)”; in [4] it was “- (No antimicrobial activity was detected up to 256 µg/mL)”; in test [5], 16 µg/mL (≈ 13.9 µM); in [6], 16 µg/mL (≈ 13.9 µM). In addition, the minimum inhibitory concentration (MIC) stood at 2 µg/mL (≈ 1.74 µM) in test [7]; 4 µg/mL (≈ 3.48 µM) in test [8]; 4 µg/mL (≈ 3.48 µM) in test [9]; 8 µg/mL (≈ 6.95 µM) in test [10]; 8 µg/mL (≈ 6.95 µM) in test [11]; 4 µg/mL (≈ 3.48 µM) in [12]. Moreover, the MIC in test [13] was above 256 µg/mL; in test [14], 8 µg/mL (≈ 6.95 µM); in test [15], 8 µg/mL (≈ 6.95 µM); in [16], 8 µg/mL (≈ 6.95 µM); in test [17], above 256 µg/mL; in [18], 16 µg/mL (≈ 13.9 µM). In addition, the MIC in [19] is reported as 16 µg/mL (≈ 13.9 µM).

In the case of `CCCCCCCCCCC[C@H](O)CC(=O)N[C@@H](Cc1c[nH]c2ccccc12)C(=O)N[C@@H](CO)C(=O)N[C@H](Cc1c[nH]c2ccccc12)C(=O)N[C@@H](Cc1ccccc1)C(=O)N[C@@H](C(=O)N[C@H](C(=O)N[C@H](C(=O)O)C(C)C)C(C)C)[C@H](C)O` [12S] ({Tetradecanoyl(3S-OH)}-WS[dW]F[dT]VV-OH), the MIC entry in [1] is reported as “- (No antimicrobial activity was detected up to 256 µg/mL)”; in test [2], “- (No antimicrobial activity was detected up to 256 µg/mL)”; in test [3], “- (No antimicrobial activity was detected up to 256 µg/mL)”; in test [4] it was “- (No antimicrobial activity was detected up to 256 µg/mL)”; in test [5], 8 µg/mL (≈ 6.95 µM); in [6], 16 µg/mL (≈ 13.9 µM). In addition, the MIC in test [7] stood at 1 µg/mL (≈ 0.869 µM); in test [8] it was 4 µg/mL (≈ 3.48 µM); in test [9], 8 µg/mL (≈ 6.95 µM); in [10] it was 16 µg/mL (≈ 13.9 µM); in [11], 16 µg/mL (≈ 13.9 µM); in test [12], 8 µg/mL (≈ 6.95 µM). Moreover, the MIC was above 256 µg/mL in test [13]; 16 µg/mL (≈ 13.9 µM) in [14]; 16 µg/mL (≈ 13.9 µM) in test [15]; 8 µg/mL (≈ 6.95 µM) in test [16]; above 256 µg/mL in [17]; 16 µg/mL (≈ 13.9 µM) in test [18]. The MIC in [19] stood at 32 µg/mL (≈ 27.8 µM).

Take `CCCCCCCCCCC[C@@H](O)CC(=O)N[C@@H](Cc1c[nH]c2ccccc12)C(=O)N[C@@H](CO)C(=O)N[C@H](Cc1c[nH]c2ccccc12)C(=O)N[C@@H](Cc1ccccc1)C(=O)N[C@@H](C(=O)N[C@@H](C)C(=O)N[C@H](C(=O)O)C(C)C)[C@H](C)O` [13R] ({Tetradecanoyl(3R-OH)}-WS[dW]F[dT]AV-OH): the MIC result is on record as “- (No antimicrobial activity was detected up to 256 µg/mL)” in [1]; “- (No antimicrobial activity was detected up to 256 µg/mL)” in test [2]; “- (No antimicrobial activity was detected up to 256 µg/mL)” in test [3]; “- (No antimicrobial activity was detected up to 256 µg/mL)” in [4]; 4 µg/mL (≈ 3.56 µM) in [5]; 128 µg/mL (≈ 114 µM) in test [6]. The minimum inhibitory concentration (MIC) in test [7] is reported as 0.5 µg/mL (≈ 0.445 µM); in [8] it was 16 µg/mL (≈ 14.3 µM); in test [9] it was 8 µg/mL (≈ 7.13 µM); in test [10], 16 µg/mL (≈ 14.3 µM); in test [11] it was 8 µg/mL (≈ 7.13 µM); in test [12] it was 16 µg/mL (≈ 14.3 µM). Besides, the minimal inhibitory concentration (MIC) in test [13] was above 256 µg/mL; in test [14], 8 µg/mL (≈ 7.13 µM); in test [15] it was 16 µg/mL (≈ 14.3 µM); in test [16] it was 8 µg/mL (≈ 7.13 µM); in test [17], above 256 µg/mL; in test [18], 32 µg/mL (≈ 28.5 µM). In test [19], this compound registered an MIC of 16 µg/mL (≈ 14.3 µM). Moreover, the “fold decrease in activity against the methicillin-resistant strain” value in test [6] was found to be 32 fold.

As to `CCCCCCCCCCC[C@H](O)CC(=O)N[C@@H](Cc1c[nH]c2ccccc12)C(=O)N[C@@H](CO)C(=O)N[C@H](Cc1c[nH]c2ccccc12)C(=O)N[C@@H](Cc1ccccc1)C(=O)N[C@@H](C(=O)N[C@@H](C)C(=O)N[C@H](C(=O)O)C(C)C)[C@H](C)O` [13S] ({Tetradecanoyl(3S-OH)}-WS[dW]F[dT]AV-OH), the MIC entry in test [1] is listed as “- (No antimicrobial activity was detected up to 256 µg/mL)”; in test [2], “- (No antimicrobial activity was detected up to 256 µg/mL)”; in [3] it was “- (No antimicrobial activity was detected up to 256 µg/mL)”; in test [4], “- (No antimicrobial activity was detected up to 256 µg/mL)”; in [5] it was 2 µg/mL (≈ 1.78 µM); in test [6] it was 64 µg/mL (≈ 57 µM). The MIC in test [7] is 8 µg/mL (≈ 7.13 µM); in [8] it was 16 µg/mL (≈ 14.3 µM); in test [9], 8 µg/mL (≈ 7.13 µM); in [10], 8 µg/mL (≈ 7.13 µM); in [11], 16 µg/mL (≈ 14.3 µM); in test [12], 8 µg/mL (≈ 7.13 µM). Further, the MIC in test [13] is above 256 µg/mL; in test [14] it was 8 µg/mL (≈ 7.13 µM); in test [15], 16 µg/mL (≈ 14.3 µM); in test [16], 8 µg/mL (≈ 7.13 µM); in test [17] it was above 256 µg/mL; in [18] it was 32 µg/mL (≈ 28.5 µM). Moreover, the MIC in test [19] was 32 µg/mL (≈ 28.5 µM). Besides, the “fold decrease in activity against the methicillin-resistant strain” value in [6] is 32 fold.
